From patent US7977317B2, “Compositions and methods for modulating blood-brain barrier transport” (Raptor Pharmaceutical Inc., priority 2001, dated 2011)

What was measured:
BBCEC monolayers = conditions: +saponin, published value; cited from earlier work
human brain capillaries = test: Accumulation/uptake of [125I]-p97 in isolated human brain capillaries; assay type: binding
Procedure: FIG. 5. Accumulation of p97 in human brain capillaries. Accumulation of [^125I]-p97 was measured at 37° C. for 1 h in isolated human brain capillaries (100 μg/assay). The incubation medium contained [^125I]-p97 and a final concentration of 100 nM p97 in Ringer/Hepes solution. The accumulation of [^125I]-p97 was performed in the presence or absence of 5 μm cold-p97, holo-transferrin or lactoferrin. […] The suspension was filtered under vacuum through a […] pore size Millipore filter. The filter was rinsed with 8 ml of stop solution, and the radioactivity was counted. Nonspecific binding of the radioactivity to the capillaries was determined by the addition of the ice-cold stop solution to the capillaries before adding the incubation medium. This value was subtracted from accumulation values obtained following an 1 h incubation. The results were expressed as ng of [^125I]-p97 accumulated per μg of brain capillaries.
FIG. 16 illustrates the identification of a p97 receptor according to ligand specificity. FIG. 16a, Uptake of [^125I]-p97 into human brain capillaries. The uptake of [^125I]-p97 at 100 nM (control) into isolated human brain capillaries was measured for 1 h at 37° C. in the presence of a 50-fold molar excess of unlabelled p97, human holo-transferrin or human lactoferrin. (*[…] Student's t-test (n=5); FIG. 16b, Effect of RAP on [^125I]-p97 transcytosis across BBCEC monolayers. Apical-to-basal transport of [^125I]-p97 was measured in the presence (closed circles) or absence (open circles) of RAP (25 μg/ml) (n=5); FIG. 16c, Inhibition of bovine [^125I]-lactoferrin transport by p97. Transcytosis of bovine [^125I]-lactoferrin (50 nM) was measured in the presence (closed circles) or absence (open circles) of unlabelled p97 (5 μM) at 37° C. (n=3).
A. Isolation of human brain capillaries. Capillaries of the blood-brain barrier were isolated from human brain cortex by a procedure previously described by Dallaire, et al., J. Biol. Chem., 267:22323-22327 (1992) with slight modifications. Human brains were obtained post-mortem. The brain was cleared of meninges, superficial large blood vessels and choroid plexus. All the following procedures were performed at 4° C. The cerebral cortex was homogenized in 5 volumes of Ringer/Hepes solution with a Polytron (Brinkman Instruments, Rexdale, Ontario, Canada). The homogenate was mixed with an equal volume of Dextran T-70 (27 g in 100 ml of Ringer/Hepes). The suspension was centrifuged at 25,000 g for 10 min. The pellet was resuspended in 30 ml of Ringer/Hepes and passed through a 250 μm nylon mesh screen. […]
B. p97 accumulation in human brain capillaries. […] Accumulation of [^125I]-p97 was measured at 37° C. for 1 h in isolated human brain capillaries (100 μg/assay). […]

- Inhibition of [125I]-p97 binding/accumulation in human brain capillaries (human brain capillaries; competitor 5 micromolar, 100 nM p97, 1 h at 37° C. (FIG. 5)): no significant competition
- Competition with p97 for receptor binding in human brain capillaries, repeat experiment (human brain capillaries; performed identically to FIG. 5 (FIG. 6)): not
Substance: transferrin: transferrin (Tf), iron-binding serum protein used as comparator and competitor
- Kd (BBCEC monolayers): 11 nM
